Measurements published in patent US10759813B2, “Neprilysin inhibitors” (THERAVANCE BIOPHARMA R&D IP, LLC, priority 2010, dated 2020).

molecular target: human neprilysin (EC 3.4.24.11; NEP) (Homo sapiens (Human), UniProt P08473); assay: In vitro enzyme inhibition assay at human NEP (fluorogenic peptide substrate); type: biochemical; settings: pKi values at human NEP, recombinant human NEP
Summary of the method: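 Recombinant human NEP preincubated 30 min at 37 °C with compound (10 μM down to pM), then 10 μM Mca-D-Arg-Arg-Leu-Dap-(Dnp)-OH in 50 mM HEPES pH 7.5, 100 mM NaCl, 0.01% Tween-20, 10 μM ZnSO4. Stopped after 20 min with acetic acid; fluorescence Ex320/Em405; Ki by nonlinear fit, reported as pKi.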

human neprilysin (EC 3.4.24.11; NEP), sequence (P08473 52-750): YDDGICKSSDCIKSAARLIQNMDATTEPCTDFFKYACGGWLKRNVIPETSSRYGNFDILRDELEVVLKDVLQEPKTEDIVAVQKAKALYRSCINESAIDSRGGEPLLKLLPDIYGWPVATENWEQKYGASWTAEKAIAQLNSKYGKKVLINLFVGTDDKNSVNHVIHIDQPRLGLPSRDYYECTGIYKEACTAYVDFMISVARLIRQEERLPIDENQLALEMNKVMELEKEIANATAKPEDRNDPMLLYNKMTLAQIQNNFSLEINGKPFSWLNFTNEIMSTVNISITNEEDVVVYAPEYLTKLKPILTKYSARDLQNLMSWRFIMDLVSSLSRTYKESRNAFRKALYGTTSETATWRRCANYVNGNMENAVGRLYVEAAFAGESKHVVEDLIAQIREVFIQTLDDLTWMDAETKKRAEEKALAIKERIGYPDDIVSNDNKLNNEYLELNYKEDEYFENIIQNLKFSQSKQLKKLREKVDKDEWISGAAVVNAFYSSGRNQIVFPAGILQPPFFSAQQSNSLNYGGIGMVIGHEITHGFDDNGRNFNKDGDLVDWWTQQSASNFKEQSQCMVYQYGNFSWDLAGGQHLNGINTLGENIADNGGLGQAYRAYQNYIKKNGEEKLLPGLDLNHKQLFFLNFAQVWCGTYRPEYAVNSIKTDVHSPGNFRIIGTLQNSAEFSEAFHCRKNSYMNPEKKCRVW

Row | SMILES | pKi | Ki
1 | COc1ccccc1C(=O)Nc1cc(C(=O)N[C@H](Cc2ccc(-c3ccccc3)cc2)C[C@@H](O)C(=O)O)on1 [Example 12-5, (2R,4R)-5-Biphenyl-4-yl-2-hydroxy-4-{[3-(2-methoxy-benzoylamino)-isoxazole-5-carbonyl]-amino}-pentanoic acid] | ≥9.0 | 
2 | O=C(N[C@H](Cc1ccc(-c2ccccc2)cc1)C[C@@H](O)C(=O)O)c1cc(-c2ccncc2)[nH]n1 [Example 15-20, (2R,4R)-5-Biphenyl-4-yl-2-hydroxy-4-[(5-pyridin-4-yl-1H-pyrazole-3-carbonyl)-amino]-pentanoic acid] |  | 1.26 to 10 nM
3 | O=C(N[C@H](Cc1ccc(-c2ccccc2)cc1Cl)C[C@@H](O)C(=O)O)c1cc(-c2cccnc2)n[nH]1 [Example 20-8, (2R,4R)-5-(3-Chloro-biphenyl-4-yl)-2-hydroxy-4-[(5-pyridin-3-yl-2H-pyrazole-3-carbonyl)-amino]-pentanoic acid] | ≥9.0 | 
4 | O=C(N[C@H](Cc1ccc(-c2ccccc2)cc1)CC(O)C(=O)O)c1cc(C(=O)O)n(Cc2c(F)ccc(Cl)c2F)n1 (stereo partly drawn) [Example 15-16, 5-((R)-1-Biphenyl-4-ylmethyl-3-carboxy-3-hydroxy-propylcarbamoyl)-2-(3-chloro-2,6-difluorobenzyl)-2H-pyrazole-3-carboxylic acid] |  | 1.26 to 10 nM
5 | Nc1cc(C(=O)N[C@H](Cc2ccc(-c3ccccc3)cc2)CC(O)C(=O)O)n[nH]1 (stereo partly drawn) [Example 15-101, (R)-4-[(5-Amino-2H-pyrazole-3-carbonyl)-amino]-5-biphenyl-4-yl-2-hydroxy-pentanoic acid] |  | 12.6 to 100 nM
6 | CC(=O)c1cc(C(=O)N[C@H](Cc2ccc(-c3cccc(Cl)c3)cc2)C[C@@H](O)C(=O)O)on1 [Example 18-7, (2R,4R)-4-[(3-Acetyl-isoxazole-5-carbonyl)-amino]-5-(3′-chlorobiphenyl-4-yl)-2-hydroxy-pentanoic acid] | ≥9.0 | 
7 | O=C(N[C@H](Cc1ccc(-c2ccccc2)cc1)C[C@H](O)C(=O)O)c1cc(C(=O)N2CCC(O)CC2)n[nH]1 [Example 15-50, (2S,4R)-5-Biphenyl-4-yl-2-hydroxy-4-{[5-(4-hydroxypiperidine-1-carbonyl)-2H-pyrazole-3-carbonyl]-amino}-pentanoic acid] |  | 12.6 to 100 nM
8 | O=C(N[C@H](Cc1ccc(-c2ccccc2)cc1)CC(O)C(=O)O)c1cc(C2CC2)n[nH]1 (stereo partly drawn) [Example 15-72, (R)-5-Biphenyl-4-yl-4-[(5-cyclopropyl-2H-pyrazole-3-carbonyl)-amino]-2-hydroxy-pentanoic acid] |  | 12.6 to 100 nM
9 | CC(=O)c1cc(C(=O)N[C@H](Cc2ccc(-c3ccccc3)cc2)C[C@@H](O)C(=O)O)[nH]n1 [Example 1-B, (2R,4R)-4-[(5-Acetyl-2H-pyrazole-3-carbonyl)amino]-5-biphenyl-4-yl-2-hydroxypentanoic Acid] | ≥9.0 | 
10 | O=C(N[C@H](Cc1ccc(-c2ccccc2)cc1)C[C@@H](O)C(=O)O)c1cc(-c2cc(Cl)ccc2Cl)[nH]n1 [Example 15-27, (2R,4R)-5-Biphenyl-4-yl-4-{[5-(2,5-dichlorophenyl)-1H-pyrazole-3-carbonyl]-amino}-2-hydroxy-pentanoic acid] | ≥9.0 | 
11 | O=C(N[C@H](Cc1ccc(-c2ccccc2)cc1)C[C@@H](O)C(=O)O)c1cc(O)no1 [Example 7-B, (2R,4R)-5-Biphenyl-4-yl-2-hydroxy-4-[(3-hydroxyisoxazole-5-carbonyl)amino]pentanoic Acid] | ≥9.0 | 
12 | O=C(N[C@H](Cc1ccc(-c2ccccc2)cc1)CC(O)C(=O)O)c1cnc2nn[nH]c2c1 (stereo partly drawn) [Example 11-11, (R)-5-Biphenyl-4-yl-2-hydroxy-4-[(1H-[1,2,3]triazolo[4,5-b]pyridine-6-carbonyl)-amino]-pentanoic acid] |  | 1.26 to 10 nM
13 | Cc1n[nH]c(C(=O)N[C@H](Cc2ccc(-c3ccccc3)cc2)CC(O)C(=O)O)n1 (stereo partly drawn) [Example 10-11, (R)-5-Biphenyl-4-yl-2-hydroxy-4-[(5-methyl-2H-[1,2,4]triazole-3-carbonyl)amino]pentanoic acid] |  | 12.6 to 100 nM
14 | O=C(N[C@H](Cc1ccc(-c2cccc(Cl)c2)cc1)C[C@@H](O)C(=O)O)c1nn(-c2cccc(Cl)c2)c(=O)[nH]1 [Example 18-42, (2R,4R)-5-(3′-Chloro-biphenyl-4-yl)-4-{[1-(3-chloro-phenyl)-5-oxo-4,5-dihydro-1H-[1,2,4]triazole-3-carbonyl]-amino}-2-hydroxy-pentanoic acid] | ≥9.0 | 
15 | O=C(N[C@H](Cc1ccc(-c2ccccc2)cc1)C[C@H](O)C(=O)O)c1cc(C(=O)O)[nH]n1 [Example 2-C, 5-((1R,3S)-1-Biphenyl-4-ylmethyl-3-carboxy-3-hydroxypropylcarbamoyl)-2H-pyrazole-3-carboxylic Acid] | ≥9.0 | 
16 | O=C(N[C@H](Cc1ccc(-c2cccc(Cl)c2)cc1)C[C@@H](O)C(=O)O)c1cc(NC(=O)c2ccccc2Cl)n[nH]1 [Example 18-27, (2R,4R)-4-{[5-(2-Chlorobenzoylamino)-2H-pyrazole-3-carbonyl]-amino}-5-(3′-chlorobiphenyl-4-yl)-2-hydroxy-pentanoic acid] | ≥9.0 | 

Row | SMILES | pKi | Ki
17 | COc1cccc(-c2cc(C(=O)N[C@H](Cc3ccc(-c4ccccc4)cc3)C[C@@H](O)C(=O)O)no2)c1 [Example 12-18, (2R,4R)-5-Biphenyl-4-yl-2-hydroxy-4-{[5-(3-methoxy-phenyl)-isoxazole-3-carbonyl]-amino}-pentanoic acid] |  | 1.26 to 10 nM
18 | CC(C)(C)c1cc(C(=O)N[C@H](Cc2ccc(-c3cccc(Cl)c3)cc2)C[C@@H](O)C(=O)O)on1 [Example 18-14, (2R,4R)-4-[(3-tert-Butyl-isoxazole-5-carbonyl)-amino]-5-(3′-chloro-biphenyl-4-yl)-2-hydroxy-pentanoic acid] | ≥9.0 | 
19 | CN(C)C(=O)c1cc(C(=O)N[C@H](Cc2ccc(-c3ccccc3)cc2)C[C@@H](O)C(=O)O)[nH]n1 [Example 15-63, (2R,4R)-5-Biphenyl-4-yl-4-[(5-dimethylcarbamoyl-2H-pyrazole-3-carbonyl)-amino]-2-hydroxy-pentanoic acid] | ≥9.0 | 
20 | O=C(N[C@H](Cc1ccc(-c2ccccc2)cc1)CC(O)C(=O)O)c1cc(F)c2[nH]nnc2c1 (stereo partly drawn) [Example 11-4, (R)-5-Biphenyl-4-yl-4-[(7-fluoro-1H-benzotriazole-5-carbonyl)amino]-2-hydroxy-pentanoic acid] |  | 1.26 to 10 nM
21 | O=C(N[C@H](Cc1ccc(-c2cccc(Cl)c2)cc1)C[C@@H](O)C(=O)O)c1cc(-c2ccccn2)n[nH]1 [Example 18-23, (2R,4R)-5-(3′-Chlorobiphenyl-4-yl)-2-hydroxy-4-[(5-pyridin-2-yl-2H-pyrazole-3-carbonyl)-amino]-pentanoic acid] | ≥9.0 | 
22 | O=C(N[C@H](Cc1ccc(-c2ccccc2)cc1)C[C@@H](O)C(=O)O)c1cc(NC(=O)c2ccccc2Cl)n[nH]1 [Example 15-96, (2R,4R)-5-Biphenyl-4-yl-4-{[5-(2-chlorobenzoylamino)-2H-pyrazole-3-carbonyl]-amino}-2-hydroxy-pentanoic acid] | ≥9.0 | 
23 | CCOC(=O)Nc1cc(C(=O)N[C@H](Cc2ccc(-c3ccccc3)cc2)CC(O)C(=O)O)[nH]n1 (stereo partly drawn) [Example 15-93, (R)-5-Biphenyl-4-yl-4-[(5-ethoxycarbonylamino-2H-pyrazole-3-carbonyl)-amino]-2-hydroxy-pentanoic acid] |  | 12.6 to 100 nM
24 | O=C(N[C@H](Cc1ccc(-c2ccccc2)cc1)CC(O)C(=O)O)c1cnc2[nH]cnc2c1 (stereo partly drawn) [Example 11-9, (R)-5-Biphenyl-4-yl-2-hydroxy-4-[(3H-imidazo[4,5-b]pyridine-6-carbonyl)-amino]-pentanoic acid] |  | 12.6 to 100 nM
25 | O=C(N[C@H](Cc1ccc(-c2ccccc2)cc1)CC(O)C(=O)O)c1cc(C(=O)O)n(Cc2ccc(F)c(Cl)c2)n1 (stereo partly drawn) [Example 15-14, 5-((R)-1-Biphenyl-4-ylmethyl-3-carboxy-3-hydroxy-propylcarbamoyl)-2-(3-chloro-4-fluorobenzyl)-2H-pyrazole-3-carboxylic acid] |  | 1.26 to 10 nM
26 | O=C(N[C@H](Cc1ccc(-c2ccccc2)cc1)C[C@@H](O)C(=O)O)c1cc(-c2cc(Cl)ccc2Cl)no1 [Example 12-11, (2R,4R)-5-Biphenyl-4-yl-4-{[3-(2,5-dichlorophenyl)-isoxazole-5-carbonyl]-amino}-2-hydroxy-pentanoic acid] | ≥9.0 | 
27 | O=C(N[C@H](Cc1ccc(-c2ccccc2)cc1)CC(O)C(=O)O)c1cc(C(=O)O)n(Cc2cccc(Cl)c2)n1 (stereo partly drawn) [Example 15-7, 5-((R)-1-Biphenyl-4-ylmethyl-3-carboxy-3-hydroxypropylcarbamoyl)-2-(3-chlorobenzyl)-2H-pyrazole-3-carboxylic acid] |  | 1.26 to 10 nM
28 | COc1cc(C(=O)N[C@H](Cc2ccc(-c3cccc(Cl)c3)cc2)C[C@@H](O)C(=O)O)on1 [Example 18-8, (2R,4R)-5-(3′-Chlorobiphenyl-4-yl)-2-hydroxy-4-[(3-methoxy-isoxazole-5-carbonyl)-amino]-pentanoic acid] | ≥9.0 | 
29 | O=C(N[C@H](Cc1ccc(-c2ccccc2)cc1Cl)C[C@@H](O)C(=O)O)c1cnn[nH]1 [Example 20-2, (2R,4R)-5-(3-Chlorobiphenyl-4-yl)-2-hydroxy-4-[(3H-[1,2,3]triazole-4-carbonyl)-amino]-pentanoic acid] | ≥9.0 | 
30 | O=C(N[C@H](Cc1ccc(-c2ccccc2)cc1)C[C@@H](O)C(=O)O)c1cc2n(n1)C[C@@H](O)COc1ccccc1-2 [Example 16-5, (2R,4R)-5-Biphenyl-4-yl-2-hydroxy-4-[((R)-8-hydroxy-10-oxa-5,6-diaza-tricyclo[9.4.0.02,6]pentadeca-1(15),2,4,11,13-pentaene-4-carbonyl)-amino]-pentanoic acid] |  | 12.6 to 100 nM
31 | O=C(N[C@H](Cc1ccc(-c2ccccc2)cc1)C[C@@H](O)C(=O)O)c1cc(-c2ccccc2)[nH]n1 [Example 15-33, (2R,4R)-5-Biphenyl-4-yl-2-hydroxy-4-[(5-phenyl-1H-pyrazole-3-carbonyl)-amino]-pentanoic acid] | ≥9.0 | 
